Source: US20260240976A1, “T[…] VACCINES BASED ON VALIDATED TARGET EPITOPES” (Deutsches Krebsforschungszentrum Stiftung des öffentlichen …, priority 2023, published 2026)
Where a SMILES comes first, the peptide text is derived from it.

Assays:
[1] = test system: peptide-specific T cell cultures; test: T cell phenotyping and intracellular cytokine staining (IFN-gamma, TNF-alpha); assay type: cell-based, human; design: key: +: cytokine: Immunogenicity of the peptide shown by intracellular cytokine staining (IFN-gamma, TNF-alpha); +*: *highlights data from published resources.; *highlights data from published resources
Procedure: To characterize and quantify the responsive cells upon peptide stimulation, the peptide-specific T cell cultures with positive ELISpot results were further analyzed with T cell phenotyping and intracellular cytokine staining (ICS) assessed by flow cytometry.
The cells of the respective continued short-term T cell culture as well as the DMSO-stimulated and an unresponsive T cell line were harvested into 2 mL reaction tubes and centrifuged at 400×g for 10 min. The supernatant was discarded and the pellet of the unresponsive T cell line was resuspended in 100 μL ELISpot medium and used as unstimulated and unstained control. The pellets of the responsive and the DMSO-stimulated T cell lines were resuspended in 200 μL ELISpot medium and split equally into two wells of a V-bottom 96-well plate. One well of the responsive T cell lines was re-stimulated with 10 μg/mL of its specific peptide while the other well was mock stimulated with 0.1% (v/v) DMSO. As positive control, one well of the DMSO-stimulated T cell line was activated by treatment with 20 ng/ml Phorbol 12-myristate 13-acetate and 1 μM lonomycin. Then, 1:10 diluted GolgiStop (containing monensin) and 1:15 diluted GolgiPlug (containing brefeldin A) were added to all wells to inhibit intracellular transport processes. Monensin inhibits the trans-Golgi transport, while brefeldin A inhibits transport between the ER and the Golgi (Chardin and McCormick, 1999; Mollenhauer et al., 1990). The stimulated cells were incubated for 5 h at standard culture conditions.
After incubation, the cells were resuspended, centrifuged at 400×g for 5 min and the supernatant was discarded. Then, the cells were resuspended in 50 μL cold staining buffer (unstained) or 50 μL cold staining buffer containing the phenotyping antibodies against CD3, CD4, CD8 and the LIVE/DEAD™ Fixable Near-IR Dead Cell Stain (unstimulated and stimulated) and incubated at 4° C. for 30 min. After the surface staining, the cells were washed twice with 200 μL staining buffer and centrifugation at 1400 rpm, followed by fixation with 1% paraformaldehyde (PFA) solution for 15 min at 4° C. All following centrifugation steps were carried out at 1400 rpm for 5 min. After fixation, the cells were again washed twice with 200 μL cold staining buffer and were then resuspended in 100 μL 1× perm/wash buffer diluted in PBS (provided is 10×) for 15 min at 4° C. for cell membrane permeabilization. Subsequently, the plate was centrifuged and the supernatant was discarded. The cells were resuspended in 50 μL perm/wash buffer diluted in PBS (unstained) or 50 μL perm/wash buffer containing the intracellular cytokine antibodies against IFNγ, TNFα and granzyme B (unstimulated and stimulated) for 30 min at 4° C. After intracellular cytokine staining, the cells were washed twice with 200 μL 1× perm/wash buffer. Then 100 μL fix/perm solution (provided in the BD Cytofix/Cytoperm kit) were added per well. After 20 min of incubation at 4° C., the cells of each well were washed twice with 200 μL 1× perm/wash buffer before being resuspended in 100 μL staining buffer and stored at 4° C. overnight.
OneComp eBeads™ (eBeads) and ArC™ Amine Reactive Compensation beads (ArC beads) were stained as compensation controls. For each antibody, 50 μL of the eBeads suspension were stained with the same dilution as used for staining the cells. The ArC beads were stained with 1 μL LIVE/DEAD™ Fixable Near-IR Dead Cell Stain stock solution in 50 μL staining buffer. The beads were incubated at 4° C. for 30 min and were then washed two times with 1 mL staining buffer and centrifugation at 400×g. Finally, the stained beads were resuspended in 400 μL staining buffer, one drop of ArC™ negative beads was added to the labelled ArC beads, and all beads were stored at 4° C. overnight.
On the next day, the samples and the single stained compensation controls were acquired at a BD FACS Canto™ II analyzer using the BD FACS Diva Software Version 6. […]

[2] = test system: short-term antigen-specific T cell lines generated from PBMCs; test: Interferon-γ ELISpot assay on short-term antigen-specific T cell lines; assay type: cell-based, human
HPV16-positive cells = test: Cytotoxicity assay (VITAL FR / live-cell imaging-based) with peptide-specific CD8+ T cells; design: species or system human; key: +: cytotox: Ability of peptide-specific T cells to kill HPV16-positive cells.; +*: *highlights data from published resources.; *highlights data from published resources; details: HLA restriction A02
Procedure: The flow cytometry based VITAL FR cytotoxicity assay was used as published by Stanke et al. (Stanke et al., 2010) to assess whether peptide-specific T cells are able to specifically kill HPV-transformed target cells. Briefly, two HLA-A2+ cell lines, a HPV16-negative (HPV16−) control cell line (C33A) and a HPV16-positive (HPV16+) target cell line (CaSki) were fluorescently labeled with either FarRed or CFSE and were co-incubated with peptide-specific CD8+ T cells as effector cells. After 48 h co-incubation, the fluorescently labeled cells were analyzed by flow cytometry to determine the surviving cells and calculate the specific cytolytic function of the effector cells by the ratio of target and control cells.
CaSki and C33A cells were fluorescently labeled with CFSE and FarRed, respectively. Cells of both cell lines were harvested and resuspended in plain RPMI medium at a concentration of 1×10^6 cells/mL. For cell labeling, 5 μM CSFE were added to CaSki cells and 0.25 μM FarRed were added to C33A cells. The cells were incubated at 37° C. and the reaction was stopped after 10 min by addition of 50 mL RPMI with 10% FBS. The cells were centrifuged at 300×g for 5 min, the supernatant was discarded and the cells were resuspended in their cell culture medium. The labeled cells were seeded in T25 cell culture flasks with 1-2×10^6 cells/flask.
On the next day, the labeled CaSki and C33A as well as the epitope-specific semi-long-term T cell lines (described in 1.6) were harvested. CD8+ T cells were isolated from the epitope-specific semi-long-term T cell lines using the MACS CD8+ T cell isolation kit (Miltenyi Biotec) according to the manufacturer's protocol for LS columns. The CD8+ T cells were resuspended in T cell medium and added to wells of a F-bottom 96-well plate in serial dilutions to achieve triplicates of 6×10^4, 3×10^4, 1.5×10^4, 0.75×10^4 and 0.375×10^4 cells per well. The CaSki and C33A cells were mixed 1:1 in T cell medium and 3×10^3 cells were added to each well containing T cells. Thereby effector:target (E:T) ratios of […] were achieved. Additionally, triplicates of mixed target cells without T cells were seeded, which is referred to as E:T 0. After 48 h incubation at 37° C., 5% C02, the cells were harvested and analyzed at a BD FACS Canto™ II analyzer using the BD FACS Diva Software Version 6. The obtained data were analyzed with the FlowJo software Version 10 by applying the same gating strategy to all samples. Subsequently, the equations (1) and (2) given below were applied in Excel (Microsoft Office 2016) to calculate specific killing.
Semi long-term T cell lines were set up to obtain high numbers of T cells, which are required for the analysis of epitope specific cytotoxic T cell responses in VITAL FR cytotoxicity assays. Autologous DCs were generated from PBMCs as described in 1.7 and loaded with the desired HPV16 peptide. PBMCs of the same donor were thawed and resuspended in T cell medium supplemented with rhIL-7 (10 ng/mL) and rhIL-15 (20 ng/mL). 1×10^7 PBMCs/well were seeded to a 24-well plate in a total volume of 1 mL/well. Peptide-loaded DCs were added in a ratio of 50:1 (PBMCs:DCs) in 1 mL rhIL-7 (10 ng/mL) and rhIL-15 (20 ng/mL) supplemented T cell medium to achieve a final volume of 2 mL. The cell cultures were fed with rhIL-2 (final concentration: 40 U/mL) every other day. If the medium turned yellow the feeding was combined with a half medium change with 1 mL fresh IL-2 supplemented T cell medium. After eight days, the peptide stimulation with peptide-loaded DCs was repeated and cultivation was continued. On day 15, the T cell lines were harvested and used for CD8+ T cell isolation and cytotoxicity assays.
In addition to the VITAL FR assay described herein above, a newly established live-cell imaging-based cytotoxicity assay was applied. […]

Compound: 110 (GQAEPDRAHY; Human papillomavirus 16) [compound 110]
- cytokine: Immunogenicity of the peptide shown by intracellular cytokine staining (IFN-gamma, TNF-alpha) ([1]; HLA restriction B15): +
- ELISpot: Immungenicity of the peptide shown by IFN-gamma ELISPOT analysis ([2]; HLA restriction B15): +

Compound: 115 (FAFRDLCIVY; Human papillomavirus 16) [compound 115]
- cytokine: Immunogenicity of the peptide shown by intracellular cytokine staining (IFN-gamma, TNF-alpha) ([1]; HLA restriction B15): +
- ELISpot: Immungenicity of the peptide shown by IFN-gamma ELISPOT analysis ([2]; HLA restriction B15): +

Compound: 116 (LCIVYRDGNPY; Human papillomavirus 16) [compound 116]
- cytokine: Immunogenicity of the peptide shown by intracellular cytokine staining (IFN-gamma, TNF-alpha) ([1]; HLA restriction B15): +
- ELISpot: Immungenicity of the peptide shown by IFN-gamma ELISPOT analysis ([2]; HLA restriction B15): +

Compound: 117 (YRHYCYSVY; Human papillomavirus 16) [compound 117]
- cytokine: Immunogenicity of the peptide shown by intracellular cytokine staining (IFN-gamma, TNF-alpha) ([1]; HLA restriction B15): +
- ELISpot: Immungenicity of the peptide shown by IFN-gamma ELISPOT analysis ([2]; HLA restriction B15): +

Compound: 137 (RHYCYSLY; Human papillomavirus 16) [compound 137]
- cytokine: Immunogenicity of the peptide shown by intracellular cytokine staining (IFN-gamma, TNF-alpha) ([1]; HLA restriction A03): +
- ELISpot: Immungenicity of the peptide shown by IFN-gamma ELISPOT analysis ([2]; HLA restriction A03): +

Compound: 141 (RPRKLPDLCT; Human papillomavirus 16) [compound 141]
- cytokine: Immunogenicity of the peptide shown by intracellular cytokine staining (IFN-gamma, TNF-alpha) ([1]; HLA restriction B07): +
- ELISpot: Immungenicity of the peptide shown by IFN-gamma ELISPOT analysis ([2]; HLA restriction B07): +

Compound: CSCC[C@H](NC(=O)[C@@H](N)Cc1ccc(O)cc1)C(=O)N[C@@H](CC(C)C)C(=O)N[C@@H](CC(=O)O)C(=O)N[C@@H](CC(C)C)C(=O)N[C@@H](CCC(N)=O)C(=O)N1CCC[C@H]1C(=O)N[C@@H](CCC(=O)O)C(=O)N[C@H](C(=O)N[C@H](C(=O)N[C@@H](CC(=O)O)C(=O)O)[C@@H](C)O)[C@@H](C)O [compound 15]
- cytotox: Ability of peptide-specific T cells to kill HPV16-positive cells (HPV16-positive cells): +

Compound: CSCC[C@H](N)C(=O)N[C@@H](CC(C)C)C(=O)N[C@@H](CC(=O)O)C(=O)N[C@@H](CC(C)C)C(=O)N[C@@H](CCC(N)=O)C(=O)N1CCC[C@H]1C(=O)N[C@@H](CCC(=O)O)C(=O)N[C@H](C(=O)O)[C@@H](C)O [compound 16] (H-MLDLQPET-OH)
- cytotox: Ability of peptide-specific T cells to kill HPV16-positive cells (HPV16-positive cells): +

Compound: CC(C)C[C@H](NC(=O)[C@@H](N)CCCNC(=N)N)C(=O)N[C@@H](CS)C(=O)N[C@H](C(=O)N[C@@H](CCC(N)=O)C(=O)N[C@@H](CO)C(=O)N[C@H](C(=O)N[C@@H](Cc1c[nH]cn1)C(=O)N[C@H](C(=O)O)C(C)C)[C@@H](C)O)C(C)C [compound 17] (H-RLCVQSTHV-OH)
- cytotox: Ability of peptide-specific T cells to kill HPV16-positive cells (HPV16-positive cells): +

Compound: CSCC[C@H](NC(=O)[C@H](CC(C)C)NC(=O)[C@H](CC(C)C)NC(=O)[C@H](CC(=O)O)NC(=O)[C@H](CCC(=O)O)NC(=O)[C@H](CC(C)C)NC(=O)[C@@H](NC(=O)[C@@H](N)CCCNC(=N)N)[C@@H](C)O)C(=O)NCC(=O)N[C@H](C(=O)N[C@@H](CC(C)C)C(=O)O)[C@@H](C)O [compound 19] (H-RTLEDLLMGTL-OH)
- cytotox: Ability of peptide-specific T cells to kill HPV16-positive cells (HPV16-positive cells): +

Compound: CC[C@H](C)[C@H](NC(=O)CNC(=O)[C@H](CC(C)C)NC(=O)[C@@H](NC(=O)CNC(=O)[C@H](CCSC)NC(=O)[C@H](CC(C)C)NC(=O)[C@H](CC(C)C)NC(=O)[C@H](CC(=O)O)NC(=O)[C@@H](N)CCC(=O)O)[C@@H](C)O)C(=O)N[C@H](C(=O)O)C(C)C [compound 21] (H-EDLLMGTLGIV-OH)
- cytotox: Ability of peptide-specific T cells to kill HPV16-positive cells (HPV16-positive cells): +

Compound: CC[C@H](C)[C@H](NC(=O)[C@@H]1CCCN1C(=O)[C@H](CS)NC(=O)[C@@H](NC(=O)[C@@H](NC(=O)CNC(=O)[C@H](CC(C)C)NC(=O)[C@@H](NC(=O)CNC(=O)[C@H](CCSC)NC(=O)[C@@H](N)CC(C)C)[C@@H](C)O)[C@@H](C)CC)C(C)C)C(=O)O [compound 25] (H-LMGTLGIVCPI-OH)
- cytotox: Ability of peptide-specific T cells to kill HPV16-positive cells (HPV16-positive cells): +

Compound: CSCC[C@H](NC(=O)[C@@H](N)Cc1ccc(O)cc1)C(=O)N[C@@H](CC(C)C)C(=O)N[C@@H](CC(=O)O)C(=O)N[C@@H](CC(C)C)C(=O)N[C@@H](CCC(N)=O)C(=O)N1CCC[C@H]1C(=O)N[C@@H](CCC(=O)O)C(=O)O [compound 32] (H-YMLDLQPE-OH)
- cytotox: Ability of peptide-specific T cells to kill HPV16-positive cells (HPV16-positive cells): +

Compound: CC[C@H](C)[C@H](NC(=O)[C@@H]1CCCN1C(=O)[C@H](CS)NC(=O)[C@@H](NC(=O)[C@@H](NC(=O)CNC(=O)[C@H](CC(C)C)NC(=O)[C@@H](NC(=O)CNC(=O)[C@@H](N)CCSC)[C@@H](C)O)[C@@H](C)CC)C(C)C)C(=O)O [compound 33] (H-MGTLGIVCPI-OH)
- cytotox: Ability of peptide-specific T cells to kill HPV16-positive cells (HPV16-positive cells): +

Compound: CC[C@H](C)[C@H](NC(=O)CNC(=O)[C@H](CC(C)C)NC(=O)[C@@H](NC(=O)CNC(=O)[C@H](CCSC)NC(=O)[C@H](CC(C)C)NC(=O)[C@@H](N)CC(C)C)[C@@H](C)O)C(=O)N[C@H](C(=O)N[C@@H](CS)C(=O)N1CCC[C@H]1C(=O)O)C(C)C [compound 44] (H-LLMGTLGIVCP-OH)
- cytotox: Ability of peptide-specific T cells to kill HPV16-positive cells (HPV16-positive cells): +
